From US9809626B2, “Antibacterial agents: salinamide derivatives” (priority 2012, dated 2017)
≈ marks a conversion by molar mass, not a printed value. Read-outs that look alike come from different tables or passages of the source. Numbered stars: 1 amine (or outer) side, 2 acyl side, 3 side chain; on linkers, the order of the positions; unused ones are H or OH. Bridge positions count the residues as written; N and C are the ends. Square brackets hold non-standard residues; d marks the D form. Peptide text beside a SMILES is read from it. * marks the point of attachment. X3 = C[C@@H](Oc1ccc([C@H](N[*:1])C(=O)[*:2])cc1)C(O)(/C=C/C(=O)[*:3])CCl; X1 = C[C@@H](Oc1ccc([C@H](N[*:1])C(=O)[*:2])cc1)C1(/C=C/C(=O)[*:3])CO1; Pentanoyl(2R-Me,3R-OH,4-Me) = CC(C)[C@@H](O)[C@@H](C)C(=O)*; d(aIle) = CC[C@H](C)[C@@H](N)C(=O)O; d(aThr) = C[C@@H](O)[C@@H](N)C(=O)O; NMeF = CN[C@@H](Cc1ccccc1)C(=O)O

Key:
[1] = system: rifamycin-, CBR703-, streptolydigin-, myxopyronin- and lipiarmycin-resistant mutants; conditions: disclosed herein
RNAP = assay: Mechanism of transcription inhibition (nucleotide addition, trigger loop, NTP competition); assay type: biochemical
[2] = system: Gram-positive bacterial pathogens; conditions: reported previously (Trischman et al. 1994; Moore et al. 1999); cited from earlier work
[3] = system: Vero E6 cells (ATCC CRL1586); assay: Cytotoxicity to mammalian cells in culture (CellTiter96 assay); assay type: cell-based; conditions: for MIC50 Vero E6 ATCC CRL1586: Table 3
Text: MICs for mammalian cells (Vero E6) in culture were quantified using CellTiter96 assay (Promega. Inc.; procedures as specified by the manufacturer).

[4] = system: Haemophilus influenzae ATCC49247; assay: Antibacterial activity, broth microdilution; assay type: cell-based; conditions: Gram-negative bacterial pathogen
Text: (§1) Antibacterial activity was quantified using broth microdilution [Clinical and Laboratory Standards Institute (CLSI/NCCLS), Methods for Dilution Antimicrobial Susceptibility Tests for Bacteria That Grow Aerobically; Approved Standard, Eighth Edition. CLIS Document M07-A8 (CLIS, Wayne Pa.), 2009]. Assays with Enterobacter cloacae ATCC13047, Pseudomonas aeruginosa ATCC10145, and Escherichia coli D21f2to1C, employed a starting cell density of 2-5×10^5 cfu/ml, Mueller Hinton II cation adjusted broth (BD Biosciences, Inc.), and an air atmosphere. Assays with Haemophilus influenzae ATCC49247 and Neisseria gonorrhoeae ATCC19424 employed a starting cell density of 2-5×10^5 cfu/ml, Haemophilus Test Medium broth (Barry et al., 1993) and a 5% CO2/95% air atmosphere. MIC50 was defined as the minimal concentration resulting in ≧50% inhibition of bacterial growth.

[5] = system: Enterobacter cloacae ATCC13047; assay: Antibacterial activity, broth microdilution; assay type: cell-based; conditions: for MIC50: Enterobacter cloacae, ATCC13047, minimal concentration resulting in ≧50% inhibition of bacterial growth, read-out: MIC50 Enterobacter cloacae ATCC 13047; for antibacterial activity against Enterobacter cloacae: Gram-negative bacterial pathogen
Text: as §1

[6] = system: Pseudomonas aeruginosa ATCC10145; assay: Antibacterial activity, broth microdilution; assay type: cell-based; conditions: Gram-negative bacterial pathogen
Text: as §1

[7] = system: Neisseria gonorrhoeae ATCC19424; assay: Antibacterial activity, broth microdilution; assay type: cell-based; conditions: Gram-negative bacterial pathogen
Text: as §1

[8] = system: Escherichia coli D21f2tolC; assay: Antibacterial activity, broth microdilution; assay type: cell-based; conditions: Escherichia coli, D21F2TOLC, read-out: MIC50 Escherichia coli D21f2tolC
Text: as §1

[9] = target: Escherichia coli RNAP σ70 holoenzyme (Escherichia coli, UniProt P0A8T7+P0A8V2); assay: Fluorescence-detected RNAP assay, Escherichia coli RNAP; assay type: biochemical; conditions: fluorescent-detected RNAP assays
Method: Fluorescence-detected RNAP assays with Escherichia coli RNAP were performed by a modification of the procedure of Kuhlman et al., Anal. Biochem. 324:183-190, 2004]. Reaction mixtures contained (20 μl): 0-100 nM test compound, 75 nM Escherichia coli RNAP σ^70 holoenzyme, 20 nM 384 bp DNA fragment containing the bacteriophage T4 N25 promoter, 100 μM ATP, 100 μM GTP, 100 μM UTP, 100 μM CTP, 50 mM Tris-HCl, pH 8.0, 100 mM KCl, 10 mM MgCl2, 1 mM DTT, 10 μg/ml bovine serum albumin, and 5.5% glycerol. Reaction components other than DNA and NTPs were pre-incubated for 10 min at 37° C. Reactions were carried out by addition of DNA and incubation for 5 min at 37° C., followed by addition of NTPs and incubation for 60 min at 37° C. DNA was removed by addition of 1 μl 5 mM CaCl2 and 2 U DNasel (Ambion, Inc.), followed by incubation for 90 min at 37° C. RNA was quantified by addition of 100 μl RiboGreen RNA Quantitation Reagent (Invitrogen, Inc.; 1:500 dilution in Tris-HCl, pH 8.0, 1 mM EDTA), followed by incubation for 10 min at 25° C., followed by measurement of fluorescence intensity [excitation wavelength=485 nm and emission wavelength=535 nm; QuantaMaster QM1 spectrofluorometer (PTI, Inc.)].
(§2) Half-maximal inhibitory concentrations (IC50s) were calculated by non-linear regression in SigmaPlot (SPSS, Inc.).

[10] = system: Gram-positive and Gram-negative bacterial RNAP; conditions: reported previously (Miao et al. 1997); cited from earlier work
[11] = target: RNAP-promoter open complex (Escherichia coli, UniProt P0A8T7+P0A8V2); assay: Formation of the RNAP-promoter open complex; assay type: biochemical
[12] = system: bacterial cells in culture; conditions: Ebright et al., WO/2012/129173; cited from earlier work
[13] = system: human RNAP I, II, and III; assay: Radiochemical assay with human RNAP I, II, and III (HeLaScribe Nuclear Extract); assay type: biochemical; conditions: for IC50: read-out: IC50 human RNAP I/II/III
Method: Radiochemical assays with human RNAP I, II, and III were performed essentially as described [Sawadogo and Roeder, Cell 43:165-75, 1985]. Reaction mixtures contained (20 μl): 0-100 μM test compound, 8 U HeLaScribe Nuclear Extract (Promega, Inc.), 1 μg human placental DNA (Sigma-Aldrich), 400 μM ATP, 400 μM [α^32P]UTP (0.11 Bq/fmol), 400 μM CTP, 400 μM GTP, 50 mM Tris-HCl, pH 8.0, 7 mM HEPES-NaOH, 70 mM (NH4)2SO4, 50 mM KCl, 12 mM MgCl2, 5 mM DTT, 0.1 mM EDTA, 0.08 mM phenylmethylsulfonyl fluoride, and 16% glycerol. Reaction components other than DNA and NTPs were pre-incubated 10 min at 30° C., DNA was added and reaction mixtures were incubated 15 min at 30° C., NTPs were added and reaction mixtures were incubated 60 min at 30° C. Reaction mixtures were spotted on DE81 filter discs (Whatman, Inc.; pre-wetted with water) and incubated 1 min at room temperature. Filters were washed with 3×3 ml Na2HPO4, 2×3 ml water, and 3 ml ethanol, using a filter manifold (Hoefer, Inc.). Filters were placed in scintillation vials containing 10 ml Scintiverse BD Cocktail (Thermo Fisher, Inc.), and radioactivity was quantified by scintillation counting (LS6500; Beckman-Coulter, Inc.).
as §2

[14] = system: rifamycin-, CBR703-, streptolydigin-, myxopyronin- and lipiarmycin-resistant mutants; conditions: Ebright et al., WO/2012/129173; cited from earlier work
[15] = system: Gram-positive and Gram-negative bacterial RNAP; assay: Inhibition of bacterial RNAP in vitro (statement); assay type: biochemical; conditions: disclosed herein

Chain of Escherichia coli RNAP σ70 holoenzyme (P0A8T7 whole entry, the tested form may be a part): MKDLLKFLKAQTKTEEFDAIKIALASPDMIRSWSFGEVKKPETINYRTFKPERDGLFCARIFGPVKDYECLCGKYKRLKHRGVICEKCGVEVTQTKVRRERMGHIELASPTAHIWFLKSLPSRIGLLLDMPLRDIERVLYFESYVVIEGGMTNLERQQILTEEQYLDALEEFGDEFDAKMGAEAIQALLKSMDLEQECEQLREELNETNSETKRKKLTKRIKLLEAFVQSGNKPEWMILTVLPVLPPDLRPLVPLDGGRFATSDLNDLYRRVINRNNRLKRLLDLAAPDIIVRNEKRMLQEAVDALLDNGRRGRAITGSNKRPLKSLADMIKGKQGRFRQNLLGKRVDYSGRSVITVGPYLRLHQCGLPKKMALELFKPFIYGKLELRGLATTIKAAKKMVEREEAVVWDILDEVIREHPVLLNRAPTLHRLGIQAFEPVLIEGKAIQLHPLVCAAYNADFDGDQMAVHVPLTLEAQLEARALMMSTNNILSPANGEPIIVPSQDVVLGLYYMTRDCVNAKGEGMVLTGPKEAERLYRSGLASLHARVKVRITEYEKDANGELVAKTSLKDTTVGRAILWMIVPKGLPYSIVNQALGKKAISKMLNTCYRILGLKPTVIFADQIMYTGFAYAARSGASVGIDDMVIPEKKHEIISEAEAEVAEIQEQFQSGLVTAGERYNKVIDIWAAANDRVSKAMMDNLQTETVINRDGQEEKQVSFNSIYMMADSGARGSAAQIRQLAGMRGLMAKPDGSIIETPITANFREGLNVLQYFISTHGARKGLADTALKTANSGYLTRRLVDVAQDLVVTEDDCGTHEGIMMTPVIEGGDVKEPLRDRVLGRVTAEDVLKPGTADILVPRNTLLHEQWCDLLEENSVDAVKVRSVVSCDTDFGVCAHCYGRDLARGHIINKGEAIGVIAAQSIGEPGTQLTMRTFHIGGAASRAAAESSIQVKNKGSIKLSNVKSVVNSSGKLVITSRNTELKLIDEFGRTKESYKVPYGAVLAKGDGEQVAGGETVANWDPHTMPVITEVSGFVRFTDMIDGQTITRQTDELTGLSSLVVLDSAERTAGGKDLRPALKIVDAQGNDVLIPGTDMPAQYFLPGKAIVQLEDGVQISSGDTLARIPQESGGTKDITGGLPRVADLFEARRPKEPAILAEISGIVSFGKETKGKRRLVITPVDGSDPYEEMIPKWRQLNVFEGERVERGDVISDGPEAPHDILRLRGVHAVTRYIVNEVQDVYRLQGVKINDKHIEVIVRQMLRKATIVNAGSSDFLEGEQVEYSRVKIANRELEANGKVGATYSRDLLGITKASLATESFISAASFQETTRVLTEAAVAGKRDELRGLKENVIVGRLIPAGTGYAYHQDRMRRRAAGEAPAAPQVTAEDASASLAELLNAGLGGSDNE
Chain of Escherichia coli RNAP σ70 holoenzyme (P0A8V2 whole entry, the tested form may be a part): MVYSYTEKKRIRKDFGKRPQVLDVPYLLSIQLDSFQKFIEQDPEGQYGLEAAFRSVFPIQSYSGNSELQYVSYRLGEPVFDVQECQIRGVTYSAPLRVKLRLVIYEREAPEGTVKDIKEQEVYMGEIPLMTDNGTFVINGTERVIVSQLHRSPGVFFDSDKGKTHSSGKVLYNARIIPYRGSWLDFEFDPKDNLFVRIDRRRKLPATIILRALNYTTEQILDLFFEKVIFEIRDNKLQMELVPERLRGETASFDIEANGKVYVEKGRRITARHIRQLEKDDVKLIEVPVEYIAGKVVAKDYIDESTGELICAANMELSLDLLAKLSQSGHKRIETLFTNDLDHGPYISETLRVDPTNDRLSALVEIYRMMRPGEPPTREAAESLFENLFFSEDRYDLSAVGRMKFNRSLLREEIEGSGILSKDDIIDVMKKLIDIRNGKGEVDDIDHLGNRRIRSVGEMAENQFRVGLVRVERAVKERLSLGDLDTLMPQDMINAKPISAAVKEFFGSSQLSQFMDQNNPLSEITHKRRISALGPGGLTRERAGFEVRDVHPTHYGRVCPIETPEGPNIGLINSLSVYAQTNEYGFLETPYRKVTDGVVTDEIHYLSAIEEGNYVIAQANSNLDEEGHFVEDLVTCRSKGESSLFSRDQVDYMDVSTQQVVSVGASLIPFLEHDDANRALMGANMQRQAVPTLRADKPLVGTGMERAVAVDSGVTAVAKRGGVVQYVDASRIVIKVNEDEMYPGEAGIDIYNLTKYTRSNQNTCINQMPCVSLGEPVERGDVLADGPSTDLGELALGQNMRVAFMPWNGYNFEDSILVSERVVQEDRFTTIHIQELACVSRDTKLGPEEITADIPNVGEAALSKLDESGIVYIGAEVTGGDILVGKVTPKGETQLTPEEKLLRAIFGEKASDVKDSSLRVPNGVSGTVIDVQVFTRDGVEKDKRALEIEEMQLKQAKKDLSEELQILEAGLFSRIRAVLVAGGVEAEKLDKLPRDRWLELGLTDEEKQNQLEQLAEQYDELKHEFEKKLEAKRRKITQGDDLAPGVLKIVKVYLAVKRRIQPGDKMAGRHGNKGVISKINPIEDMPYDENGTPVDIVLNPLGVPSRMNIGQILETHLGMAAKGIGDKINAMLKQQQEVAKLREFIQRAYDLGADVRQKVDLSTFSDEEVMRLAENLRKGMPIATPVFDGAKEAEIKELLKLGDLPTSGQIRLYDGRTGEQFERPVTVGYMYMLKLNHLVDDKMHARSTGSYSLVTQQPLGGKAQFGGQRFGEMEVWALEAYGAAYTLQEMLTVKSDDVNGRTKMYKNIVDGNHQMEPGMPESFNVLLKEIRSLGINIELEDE
Chain of Escherichia coli RNAP σ70 holoenzyme (P0A7Z4 whole entry, further chain, the tested form may be a part): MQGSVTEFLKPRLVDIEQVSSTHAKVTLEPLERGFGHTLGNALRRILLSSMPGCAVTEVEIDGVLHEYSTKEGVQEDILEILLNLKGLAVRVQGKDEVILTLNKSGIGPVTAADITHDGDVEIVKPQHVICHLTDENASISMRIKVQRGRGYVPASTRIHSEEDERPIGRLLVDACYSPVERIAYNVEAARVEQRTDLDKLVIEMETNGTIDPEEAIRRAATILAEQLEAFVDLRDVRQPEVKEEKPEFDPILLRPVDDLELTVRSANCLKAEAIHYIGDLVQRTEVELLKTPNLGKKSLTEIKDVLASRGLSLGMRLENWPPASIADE
Chain of Escherichia coli RNAP σ70 holoenzyme (P0A800 whole entry, further chain, the tested form may be a part): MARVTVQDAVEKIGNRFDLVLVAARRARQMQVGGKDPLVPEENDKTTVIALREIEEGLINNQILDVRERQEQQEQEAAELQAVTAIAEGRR
Chain of Escherichia coli RNAP σ70 holoenzyme (P00579 whole entry, further chain, the tested form may be a part): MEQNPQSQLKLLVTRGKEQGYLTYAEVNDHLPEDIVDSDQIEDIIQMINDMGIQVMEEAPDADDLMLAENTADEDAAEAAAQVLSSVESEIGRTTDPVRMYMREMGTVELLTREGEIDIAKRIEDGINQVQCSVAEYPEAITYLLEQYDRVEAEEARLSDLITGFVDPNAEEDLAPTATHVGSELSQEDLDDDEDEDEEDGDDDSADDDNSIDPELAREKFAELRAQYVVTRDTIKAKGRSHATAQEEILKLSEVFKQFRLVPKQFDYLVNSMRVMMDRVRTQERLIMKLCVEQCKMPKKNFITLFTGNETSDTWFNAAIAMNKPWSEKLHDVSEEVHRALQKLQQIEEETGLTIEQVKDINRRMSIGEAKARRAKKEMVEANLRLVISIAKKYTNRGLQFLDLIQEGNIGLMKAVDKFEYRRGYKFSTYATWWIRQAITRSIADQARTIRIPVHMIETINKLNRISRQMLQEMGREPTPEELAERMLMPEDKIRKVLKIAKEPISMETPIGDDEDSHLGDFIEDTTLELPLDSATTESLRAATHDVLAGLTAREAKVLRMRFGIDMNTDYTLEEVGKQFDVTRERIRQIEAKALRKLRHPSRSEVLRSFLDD

Row | Structure (SMILES) | antibacterial activity against Gram-positive bacterial pathogens [2] | inhibition of growth of mammalian cells in culture [3] | MIC50 Vero E6 ATCC CRL1586 [3] [µg/mL] | antibacterial activity against Haemophilus influenzae [4] | MIC50 [5] [µg/mL] | antibacterial activity against Enterobacter cloacae [5] | antibacterial activity against Pseudomonas aeruginosa [6] | antibacterial activity against Neisseria gonorrhoeae [7] | MIC50 [8] [µg/mL] | IC50 [9] [nM] | inhibition of human RNAP I, II, and III [13] | IC50 [13] [nM] | other results
1 | CC[C@H](C)[C@H]1NC(=O)[C@@H](NC(=O)[C@H](C)[C@H](O)C(C)C)[C@@H](C)OC(=O)[C@@H]2COC(=O)CNC(=O)/C=C/C3(CO3)[C@@H](C)Oc3ccc(cc3)[C@H](NC1=O)C(=O)N(C)[C@@H](Cc1ccccc1)C(=O)N[C@H]([C@@H](C)O)C(=O)N2 (stereo partly drawn) [SalA (1), salinamide A] ({Pentanoyl(2R-Me,3R-OH,4-Me)}-T[d(aIle)][X1][NMeF][d(aThr)]S; ester 1-C; linker 3-6 via G) | exhibit antibacterial activity | do not detectably inhibit | >100 | exhibit antibacterial activity | 1.56 (≈ 1.53 µM) | exhibit antibacterial activity | exhibit antibacterial activity | exhibit antibacterial activity | 0.024 (≈ 0.0235 µM) | 1000 | do not detectably inhibit | > 100000 | cross-resistance of streptolydigin-resistant, myxopyronin-resistant, and lipiarmycin-resistant mutants with Sal [1]: do not exhibit cross-resistance; inhibition of nucleotide addition in transcription initiation and transcription elongation (RNAP): inhibits; inhibition of wild-type RNAP versus RNAP-derivative having a deletion of the trigger loop (RNAP): equal extents; mode of transcription inhibition with respect to NTP substrate (RNAP): noncompetitive; inhibition of Gram-positive and Gram-negative bacterial RNAP in vitro [10]: inhibits; inhibition of formation of the RNAP-promoter open complex in transcription initiation [11]: does not inhibit; inhibition of RNA synthesis in bacterial cells in culture [12]: inhibits; cross-resistance of CBR703-resistant mutants to Sal [14]: not cross-resistant; cross-resistance of rifamycin-resistant mutants to Sal [14]: not cross-resistant
2 | CC[C@H](C)[C@H]1NC(=O)[C@@H](NC(=O)[C@H](C)[C@H](O)C(C)C)[C@@H](C)OC(=O)[C@@H]2COC(=O)CNC(=O)/C=C/C(O)(CCl)[C@@H](C)Oc3ccc(cc3)[C@H](NC1=O)C(=O)N(C)[C@@H](Cc1ccccc1)C(=O)N[C@H]([C@@H](C)O)C(=O)N2 (stereo partly drawn) [SalB (2), salinamide B] ({Pentanoyl(2R-Me,3R-OH,4-Me)}-T[d(aIle)][X3][NMeF][d(aThr)]S; ester 1-C; linker 3-6 via G) | exhibit antibacterial activity | do not detectably inhibit | >100 | exhibit antibacterial activity | 6.25 (≈ 5.92 µM) | exhibit antibacterial activity | exhibit antibacterial activity | exhibit antibacterial activity | 0.098 (≈ 0.0927 µM) | 1000 | do not detectably inhibit | > 100000 | inhibition of Gram-positive and Gram-negative bacterial RNAP in vitro [15]: inhibits
